Data as given in US10266544B2, “Aryl substituted aminomethyl spectinomycin analogs as antibacterial agents” (ST. JUDE CHILDREN'S RESEARCH HOSPITAL, INC., priority 2013, dated 2019).
Counter-ions that a name gives are not always drawn. Like-named read-outs stand apart in the source and are kept apart here.

How the values were obtained:
Type in all cases: cell-based
[1] = system: E. coli K12 ΔtolC; assay: microbe, parasite or virus in culture; conditions: Escherichia coli, read-out: MIC E.c. Δtolc
[2] = system: Streptococcus pneumoniae (R6); assay: MIC determination, microbroth dilution; conditions: read-out: MIC S. pn.
[3] = system: Bacillus anthracis, Sterne 34F2; assay: microbe, parasite or virus in culture; conditions: STERNE34F2, read-out: MIC B.a.
[4] = system: Proteus vulgaris (ATCC 33420); assay: MIC determination, microbroth dilution; conditions: ATCC33420
[5] = system: Pseudomonas aeruginosa (PA01); assay: MIC determination, microbroth dilution
[6] = system: Neisseria meningitides (ATCC 13077); assay: Disc diffusion assay; conditions: ATCC13077, 4 μg per disc, read-out: Zone of inhibition N.m.
[7] = system: M. tuberculosis clinical isolates; assay: microbe, parasite or virus in culture; conditions: Mycobacterium tuberculosis
[8] = system: Legionella pneumophila (ATCC 33153); assay: microbe, parasite or virus in culture; conditions: ATCC33153, 72 h, read-out: Zone of inhibition L.p.
[9] = system: Listeria monocytogenes; assay: MIC determination (Table 6)
[10] = system: Haemophilus influenza (ATCC 49247); assay: microbe, parasite or virus in culture; conditions: ATCC49247; Haemophilus influenza; 4 μg per disc; range of at least two experiments; read-out: Zone of inhibition H.i.
[11] = system: Moraxella catarrhalis; assay: MIC determination (Table 6)
[12] = system: Streptococcus pyogenes (ATCC 700294); assay: MIC determination, microbroth dilution
[13] = system: Klebsiella pneumoniae (ATCC 33495); assay: MIC determination, microbroth dilution; conditions: ATCC33495
[14] = system: Staphylococcus aureus (ATCC 29213); assay: MIC determination, microbroth dilution; conditions: ATCC29213; Staphylococcus aureus (ATCC 29213); read-out: MIC S.a.
[15] = system: Escherichia coli (ATCC 700926); assay: MIC determination, microbroth dilution; conditions: ATCC700926; Escherichia coli (ATCC 700926); read-out: MIC E.c.
[16] = system: MRSA, Staphylococcus aureus (NRS70); assay: MIC determination, microbroth dilution; conditions: read-out: MIC MRSA
[17] = system: Bacillus subtilis (ATCC 23857); assay: MIC determination, microbroth dilution
[18] = system: Stenotrophomonas maltophilia (ATCC 13637); assay: MIC determination, microbroth dilution
[19] = system: Neisseria gonorrhoeae (ATCC 49226); assay: Disc diffusion assay; conditions: ATCC49226, 4 μg per disc, read-out: Zone of inhibition N.g.
[20] = system: Bacillus anthracis; assay: microbe, parasite or virus in culture; conditions: read-out: MIC B.a.
[21] = system: Proteus mirabilis (ATCC 25933); assay: MIC determination, microbroth dilution; conditions: ATCC25933
[22] = system: acinetobacter baumannii (ATCC 19606); assay: MIC determination, microbroth dilution; conditions: ATCC19606
[23] = system: Burkholderia cepacia (ATCC 25416); assay: MIC determination, microbroth dilution; conditions: Burkholderia cepacia
[24] = ATCC700294, Streptococcus pyogenes (ATCC 700294), read-out: MIC S. py.
[25] = ATCC23857, Bacillus subtilis (ATCC 23857), read-out: MIC B.s.
[26] = ATCC13637, Stenotrophomonas maltophilia (ATCC 13637), read-out: MIC S.m.
[27] = ATCC25416, read-out: MIC B.c., Burkholderia cepacia (ATCC 25416)
[28] = ATCC25416, read-out: MIC B.c., Burkholderia cepacia, Table 6

Row | Compound | MIC [1] | MIC ([2]; Streptococcus pneumoniae (R6)) | MIC [3] | MIC [4] | MIC [5] | zone of inhibition at 4 µg/disc [6] | MIC ([7]; H37RV, read-out: MIC H37Rv) | zone of inhibition at 4 µg/disc [8] | MIC [9] | zone of inhibition at 4 µg/disc [10] | MIC [11] | MIC [13] | MIC [14] | MIC [15] | zone of inhibition at 4 µg/disc [19] | MIC [20] | MIC [21] | MIC [22] | MIC [23, 27] | MIC [23, 28] | also measured
1 | CN[C@@H]1[C@H](O)[C@H](NC)[C@H]2O[C@]3(O)[C@H](O[C@@H]2[C@H]1O)O[C@H](C)C[C@@]3(O)CNCCc1cccs1 [compound 61, 3′-(R)-3′-[((2-(thiophen-2-yl)ethyl)aminomethyl]dihydrospectinomycintrihydrobromide] | 3.1 to 6.3 µg/mL | 6.3 µg/mL | 12.5 to 50 µg/mL | 100 to 200 µg/mL | > 200 µg/mL | 14 mm | 6.3 µg/mL | 30 mm | 6.3 µg/mL | 14 mm | 1.6 µg/mL | 50 µg/mL | 12.5 µg/mL | 25 µg/mL | 13 mm | 12.5 to 50 µg/mL | 200 µg/mL | > 200 µg/mL | ≥ 200 µg/mL | ≥ 200 µg/mL | MIC ([7]; read-out: MIC TN022): 6.3 µg/mL; MIC ([7]; read-out: MIC TN026): 6.3 µg/mL; MIC [12, 24]: 12.5 µg/mL; MIC ([16]; Staphylococcus aureus (NRS70)): 25 to 50 µg/mL; MIC [17, 25]: 6.3 µg/mL; MIC [18, 26]: 12.5 µg/mL
2 | CN[C@@H]1[C@H](O)[C@H](NC)[C@H]2O[C@]3(O)[C@H](O[C@@H]2[C@H]1O)O[C@H](C)C[C@@]3(O)CNCCc1ccc[nH]1 [compound 62, 3′-(R)-3′-[((2-(1H-pyrrol-2-yl)ethyl)aminomethyl]dihydrospectinomycintetrahydrobromide] | 12.5 µg/mL | 100 µg/mL | 25 µg/mL | 50 to 100 µg/mL | > 200 µg/mL | 0 mm | 50 µg/mL | 12 mm | 25 µg/mL | 0 mm | 12.5 µg/mL | 100 to 200 µg/mL | 25 µg/mL | 50 µg/mL | 0 mm | 25 µg/mL | 200 µg/mL | > 200 µg/mL | > 200 µg/mL | > 200 µg/mL | MIC ([7]; read-out: MIC TN022): 25 µg/mL; MIC ([7]; read-out: MIC TN026): 100 µg/mL; MIC [12, 24]: 200 µg/mL; MIC ([16]; Staphylococcus aureus): 12.5 to 25 µg/mL; MIC [17, 25]: 6.3 µg/mL; MIC [18, 26]: 6.3 µg/mL
3 | CN[C@@H]1[C@H](O)[C@H](NC)[C@H]2O[C@]3(O)[C@H](O[C@@H]2[C@H]1O)O[C@H](C)C[C@@]3(O)CNCCc1ccc(OC)cc1 [compound 53, 3′-(R)-3′-[(4-methoxy)phenethylaminomethyl]dihydrospectinomycin Trihydrochloride] | 12.5 µg/mL | – | 25 to 50 µg/mL | 200 µg/mL | > 200 µg/mL | 10 mm | 6.3 µg/mL | 30 mm | 6.3 µg/mL | 11 mm | 3.1 µg/mL | 100 to 200 µg/mL | 25 µg/mL | 50 µg/mL | 12 mm | 25 to 50 µg/mL | > 200 µg/mL | > 200 µg/mL | > 200 µg/mL | > 200 µg/mL | MIC ([2]; Streptococcus pneumoniae): 12.5 µg/mL; MIC ([7]; read-out: MIC TN022): 12.5 µg/mL; MIC ([7]; read-out: MIC TN026): 12.5 µg/mL; MIC ([12]; Streptococcus pyogenes, ATCC700294, read-out: MIC S. py.): 12.5 to 25 µg/mL; MIC ([16]; Staphylococcus aureus (NRS70)): 100 µg/mL; MIC ([17]; Bacillus subtilis, ATCC23857, read-out: MIC B.s.): 12.5 µg/mL; MIC ([18]; Stenotrophomonas maltophilia, ATCC13637, read-out: MIC S.m.): 12.5 µg/mL
4 | CN[C@@H]1[C@H](O)[C@H](NC)[C@H]2O[C@]3(O)[C@H](O[C@@H]2[C@H]1O)O[C@H](C)C[C@@]3(O)CNCc1ccccc1Cl [compound 56, 3′-(R)-3′-[(2-chloro)benzylaminomethyl]dihydrospectinomycin Trihydrobromide] | > 200 µg/mL | 100 µg/mL | > 200 µg/mL | > 200 µg/mL | > 200 µg/mL | 0 mm | > 200 µg/mL | 0 mm | > 200 µg/mL | 0 mm | 100 µg/mL | > 200 µg/mL | > 200 µg/mL | > 200 µg/mL | 0 mm | > 200 µg/mL | > 200 µg/mL | > 200 µg/mL | > 200 µg/mL | > 200 µg/mL | MIC [12, 24]: 50 µg/mL; MIC ([16]; Staphylococcus aureus (NRS70)): > 200 µg/mL; MIC [17, 25]: > 200 µg/mL; MIC [18, 26]: > 200 µg/mL
5 | CN[C@@H]1[C@H](O)[C@H](NC)[C@H]2O[C@]3(O)[C@H](O[C@@H]2[C@H]1O)O[C@H](C)C[C@@]3(O)CNCCc1nccs1 [compound 64, 3′-(R)-3′-[((2-(thiazol-2-yl)ethyl)aminomethyl]dihydrospectinomycintetrahydrobromide] | 25 to 50 µg/mL | 12.5 µg/mL | 50 µg/mL | > 200 µg/mL | > 200 µg/mL | 11 mm | 1.6 µg/mL | 33 mm | 12.5 µg/mL | 11 mm | 3.1 µg/mL | 100 to 200 µg/mL | 50 to 100 µg/mL | 50 to 100 µg/mL | 8 mm | 50 µg/mL | > 200 µg/mL | > 200 µg/mL | > 200 µg/mL | > 200 µg/mL | MIC ([7]; read-out: MIC TN022): 1.6 µg/mL; MIC ([7]; read-out: MIC TN026): 1.6 µg/mL; MIC [12, 24]: 25 µg/mL; MIC ([16]; Staphylococcus aureus (NRS70)): > 200 µg/mL; MIC [17, 25]: 12.5 to 25 µg/mL; MIC [18, 26]: 25 to 50 µg/mL
